From patent US12528815B2, “5-amino-8-(4-pyridyl)-[1,2,4]triazolo[4,3-c]pyrimidin-3-one compounds for use against cancer” (Nxera Pharma UK Limited, priority 2020, dated 2026)

Tests used:
[1] = molecular target: T1, human adenosine A1 receptor (Homo sapiens, UniProt P30542); assay: Inhibition binding assay, human adenosine A1 receptor membranes, [3H]DPCPX; conditions: 1 nM [3H]DPCPX, 25° C., 1 h; IC50 converted to Ki with Cheng-Prusoff; read-out: A1 pKi (converted)
T1 construct: expressed in transfected cells; host or cells: HEK293 cells infected with BacMam (the same paragraph also labels the preparation CHO-hA1)
T1 sequence (P30542 1-326): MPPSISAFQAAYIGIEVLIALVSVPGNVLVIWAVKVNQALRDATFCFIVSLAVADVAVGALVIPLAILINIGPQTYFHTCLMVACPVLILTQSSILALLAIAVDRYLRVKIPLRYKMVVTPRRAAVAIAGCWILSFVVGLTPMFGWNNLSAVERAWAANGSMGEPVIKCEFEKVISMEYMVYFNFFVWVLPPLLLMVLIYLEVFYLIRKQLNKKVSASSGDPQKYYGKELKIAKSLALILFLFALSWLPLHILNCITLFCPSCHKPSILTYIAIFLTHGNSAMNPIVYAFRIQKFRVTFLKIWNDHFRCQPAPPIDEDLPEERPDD
In short: (§1)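 Membranes from BacMam-infected HEK293 cells (0.2 μg A2A, 1.4 μg A1) incubated 1 h at 25° C with test compound and 1 nM [3H]ZM241385 (A2A; 50 mM Tris-HCl pH 7.4) or [3H]DPCPX (A1; plus 100 mM NaCl, 10 mM MgCl2). Nonspecific: 1 μM CGS15943 or DPCPX. Filtration, scintillation; IC50 converted to Ki via Cheng-Prusoff.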

[2] = molecular target: T2, human adenosine A2A receptor (Homo sapiens, UniProt P29274); assay: Inhibition binding assay, human adenosine A2A receptor membranes, [3H]ZM241385; conditions: 1 nM [3H]ZM241385, HEK293-hA2A membranes, 25° C., 1 h; IC50 converted to Ki with Cheng-Prusoff; read-out: A2A pKi (converted)
T2 construct: expressed in transfected cells; host or cells: HEK293 cells infected with BacMam
In short: as §1

T2 sequence (P29274 whole entry): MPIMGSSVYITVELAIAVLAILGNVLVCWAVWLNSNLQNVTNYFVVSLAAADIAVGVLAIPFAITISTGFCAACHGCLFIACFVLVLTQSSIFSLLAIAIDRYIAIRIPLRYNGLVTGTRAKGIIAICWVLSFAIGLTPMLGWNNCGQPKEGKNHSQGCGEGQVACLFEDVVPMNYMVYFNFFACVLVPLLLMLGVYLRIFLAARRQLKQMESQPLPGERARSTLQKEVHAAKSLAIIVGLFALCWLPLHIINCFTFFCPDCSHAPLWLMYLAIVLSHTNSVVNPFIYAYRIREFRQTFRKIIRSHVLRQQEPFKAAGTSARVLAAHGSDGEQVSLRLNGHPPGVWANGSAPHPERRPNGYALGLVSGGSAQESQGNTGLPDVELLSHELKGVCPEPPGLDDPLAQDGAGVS

Ki [1] [nM] | Ki [2] [nM] | SMILES
501 | 2 | Cc1cc(-c2c(-c3ccc(C)o3)nc(N)n3c(=O)n(CCC(F)(F)F)nc23)cc(C)n1 [Example 2-43, 5-amino-8-(2,6-dimethyl-4-pyridyl)-7-(5-methyl-2-furyl)-2-(3,3,3-trifluoropropyl)-[1,2,4]triazolo[4,3-c]pyrimidin-3-one]
398 | 0.501 | [2H]c1c([2H])c([2H])c(-c2nc(N)n3c(=O)n(CCC(F)(F)F)nc3c2-c2cc(C)nc(C)c2)c([2H])c1[2H] [Example 2-32, 5-amino-8-(2,6-dimethyl-4-pyridyl)-7-(2,3,4,5,6-pentadeuteriophenyl)-2-(3,3,3-trifluoropropyl)-[1,2,4]triazolo[4,3-c]pyrimidin-3-one]
> 3160 | 200 | Cc1cc(-c2c(-c3ccccc3)nc(N)n3c(=O)n(CC4CCN(C)CC4)nc23)cc(C)n1 [Example 2-78, 5-amino-8-(2,6-dimethyl-4-pyridyl)-2-[(1-methyl-4-piperidyl)methyl]-7-phenyl-[1,2,4]triazolo[4,3-c]pyrimidin-3-one]
10 | 0.501 | Cc1cc(-c2c(-c3ccccc3)nc(N)n3c(=O)n(Cc4cccc(F)c4Cl)nc23)cc(C)n1 [Example 1-21, 5-amino-2-[(2-chloro-3-fluoro-phenyl)methyl]-8-(2,6-dimethyl-4-pyridyl)-7-phenyl-[1,2,4]triazolo[4,3-c]pyrimidin-3-one]
398 | 12.6 | Cc1cc(-c2c(-c3ccccc3)nc(N)n3c(=O)n(CCc4ccccc4)nc23)cc(N2CCC2)n1 [Example 1-90, 5-amino-8-[2-(azetidin-1-yl)-6-methyl-4-pyridyl]-7-phenyl-2-(2-phenylethyl)-[1,2,4]triazolo[4,3-c]pyrimidin-3-one]
631 | 15.8 | Cc1cc(-c2c(-c3ccccc3)nc(N)n3c(=O)n(C[C@H]4COCCN4)nc23)cc(C)n1 [Example 2-76, 5-amino-8-(2,6-dimethyl-4-pyridyl)-2-[[(3S)-morpholin-3-yl]methyl]-7-phenyl-[1,2,4]triazolo[4,3-c]pyrimidin-3-one]

The remaining lines, values behind:

SMILES | Ki [1] [nM] | Ki [2] [nM]
Cc1cc(-c2c(-c3ccccc3)nc(N)n3c(=O)n(C(C)c4cc(F)ccc4F)nc23)cc(C)n1 (stereo not shown) [Example 1-15, 5-amino-2-[1-(2,5-difluorophenyl)ethyl]-8-(2,6-dimethyl-4-pyridyl)-7-phenyl-[1,2,4]triazolo[4,3-c]pyrimidin-3-one] | 79.4 | 1.58
Cc1cc(-c2c(-c3ccc(F)cc3)nc(N)n3c(=O)n(CCc4ccccc4)nc23)cc(C)n1 [Example 1-87, 5-amino-8-(2,6-dimethyl-4-pyridyl)-7-(4-fluorophenyl)-2-(2-phenylethyl)-[1,2,4]triazolo[4,3-c]pyrimidin-3-one] | 501 | 15.8
Cc1cc(-c2c(-c3ccccc3)nc(N)n3c(=O)n(CCNC(C)c4nnc5ncccn45)nc23)cc(C)n1 (stereo not shown) [Example 1-92, 5-amino-8-(2,6-dimethyl-4-pyridyl)-7-phenyl-2-[2-[1-([1,2,4]triazolo[4,3-a]pyrimidin-3-yl)ethylamino]ethyl]-[1,2,4]triazolo[4,3-c]pyrimidin-3-one] | > 3980 | 126
Cc1cc(-c2c(-c3ccccc3)nc(N)n3c(=O)n(CC(C)C)nc23)cc(C)n1 [Example 2-21, 5-amino-8-(2,6-dimethyl-4-pyridyl)-2-isobutyl-7-phenyl-[1,2,4]triazolo[4,3-c]pyrimidin-3-one] | 1000 | 2.51
Cc1cc(-c2c(-c3ccccc3)nc(N)n3c(=O)n(CC4CCCOC4)nc23)cc(CO)n1 (single isomer, unassigned) [Example 2-92-iso-1, 5-amino-8-[2-(hydroxymethyl)-6-methyl-4-pyridyl]-7-phenyl-2-(tetrahydropyran-3-ylmethyl)-[1,2,4]triazolo[4,3-c]pyrimidin-3-one] | 251 | 2.51
